Data as given in US6013647A, “Benzoxazinedione derivatives, method of producing them and uses thereof” (Gruenenthal GmbH, priority 1997, dated 2000).
Where a SMILES comes first, the peptide text is derived from it. [ ]: non-standard residue; d: D form. Orn(N5-OH,N5-Ac) = CC(=O)N(O)CCC[C@H](N)C(=O)O

Columns and labels:
[1] = test system: E. coli; conditions: literature; cited from earlier work
[2] = test system: B. subtilis; conditions: literature; cited from earlier work
[3] = e.g. thalassaemia; cited from earlier work
[4] = test system: E. coli AB 2847; assay: Siderophore efficacy, growth promotion of indicator mutant (DIN 58 940); assay type: cell-based; conditions: test substances 5 μg/test plate
Source text: (§1) The promotion of growth can be ascertained after the addition of the test substances as external siderophores. In the indicator mutants, the synthesis of the respective siderophores, e.g. pyoverdin, pyochelin, enterobactin, aerobactin or yersiniabactin, or the biosynthesis of aromatic compounds, is blocked, or there is a lack of receptors for enterobactin, pyochelin or pyoverdin and for other important components for the bacterial transport of iron (e.g. the membrane proteins Cir, Fiu, FepA and the TonB protein also). Under conditions where there is a lack of iron, these mutants therefore cannot grow or can only grow in a very retarded manner. In particular, the following indicator mutants were used: Pseudomonas aeruginosa PAO 6609, K 407, E. coli AB 2847, Salmonella typhimurium enb-7, TA 2700, and Yersinia enterocolitica WAH 5030. The controls used were ferrioxamine E for the Pseudomonas strains, ferrioxamine G for the Salmonella strains, and ferrichrome for the E. coli strains. The test substances were each employed in an amount of 5 μg/test plate.

[5] = test system: Pseudomonas aeruginosa PAO 6609; assay: as above; assay type: cell-based; conditions: Pseud. aeruginosa PAO 6609; test substances 5 μg/test plate
Source text: as §1

[6] = test system: Salmonella typhimurium TA 2700; assay: as above; assay type: cell-based; conditions: Salmonella TA 2700; test substances 5 μg/test plate
Source text: as §1

[7] = test system: Salmonella typhimurium enb-7; assay: as above; assay type: cell-based; conditions: Salmonella enb-7; test substances 5 μg/test plate
Source text: as §1

[8] = test system: Yersinia enterocolitica WAH 5030; assay: as above; assay type: cell-based; conditions: Y. enterocol. WAH 5030; test substances 5 μg/test plate
Source text: as §1

Compound | Growth areas (diameter) of siderophore indicator strain [4] [mm] | Growth areas (diameter) of siderophore indicator strain [5] [mm] | Growth areas (diameter) of siderophore indicator strain [6] [mm] | Growth areas (diameter) of siderophore indicator strain [7] [mm] | further results
O=C(N[C@@H](CO)C(=O)O)c1cccc(O)c1O [N-(2,3-dihydroxybenzoyl)-L-serine] | – | – | – | – | siderophore activity [1]: effective as a siderophore
O=C(O)CNC(=O)c1cccc(O)c1O [N-(2,3-dihydroxybenzoyl)glycine] | – | – | – | – | siderophore activity [2]: siderophore for B. subtilis
CC(=O)N(O)CCCCCNC(=O)CCC(=O)N(O)CCCCCNC(=O)CCC(=O)N(O)CCCCCN [desferrioxamine B] | – | – | – | – | use in diseases caused by an excess of iron [3]: successfully used in diseases which are caused by an excess of iron
O=C(N[C@H]1COC(=O)[C@@H](NC(=O)c2cccc(O)c2O)COC(=O)[C@@H](NC(=O)c2cccc(O)c2O)COC1=O)c1cccc(O)c1O [enterobactin] | – | – | – | – | siderophore activity [1]: siderophore for E. coli
CC(=O)N([O-])CCC[C@@H]1NC(=O)CNC(=O)CNC(=O)CNC(=O)[C@H](CCCN([O-])C(C)=O)NC(=O)[C@H](CCCN([O-])C(C)=O)NC1=O.[Fe+3] [ferrichrome, reference compound] (cyclo(GGG[Orn(N5-OH,N5-Ac)][Orn(N5-OH,N5-Ac)][Orn(N5-OH,N5-Ac)])) | 23 | – | – | – | –
COC(=O)Oc1cccc2c(=O)n(CC(=O)O)c(=O)oc12 [substance 1, (8-methoxycarbonyloxy-2,4-dioxobenzoxazin-3-yl)-acetic acid] | 15 | 0 | 13 | 18 | –
COC(=O)Oc1cccc2c(=O)n(CC(=O)NCC(=O)O)c(=O)oc12 [substance 2, (8-methoxycarbonyloxy-2,4-dioxobenzoxazin-3-yl)-acetyl-glycine] | 10 | 13 | 21 | 22 | –
C[C@H](NC(=O)Cn1c(=O)oc2c(O)cccc2c1=O)C(=O)O [substance 4, (8-hydroxy-2,4-dioxobenzoxazin-3-yl)-acetyl-L-alanine] | 0 | 0 | 0 | 14 | –
COC(=O)Oc1cccc2c(=O)n([C@@H](C)C(=O)O)c(=O)oc12 [substance 7, 2-L-(8-methoxycarbonyloxy-2,4-dioxobenzoxazin-3-yl)-propionic acid] | 0 | 0 | 0 | 10 | –
COC(=O)Oc1cccc2c(=O)n(N=Cc3ccc(C(=O)O)cc3)c(=O)oc12 [substance 9, 4-[(8-methoxycarbonyloxy-2,4-dioxobenzoxazin-3-yl-imino)-methyl]-benzoic acid] | 24 | 0 | 16 | 0 | –
ferrioxamine E [reference compound] | – | 35 | – | – | Growth areas (diameter) of siderophore indicator strain [8]: 40 mm
ferrioxamine G [reference compound] | – | – | 20 | 38 | –
